Columns and labels:
Assay type in all cases: in vivo, Nicotiana tabacum
[1] = test system: SAD2 - Cultivar KY 160 genetically engineered to express a modified version of the SAD1 synthetic gene; assay: Yield assay, 2,4-D sprayed on transgenic SAD2 tobacco; conditions: for Plant Yield / Percent Leaf Yield / Corrected Leaf Yield / Corrected Plant Yield / Leaf Yield: SAD2 tobacco, isooctyl ester formulation; for Plant Yield / Corrected Leaf Yield / Corrected Plant Yield / Leaf Yield: dry matter 21 days after spraying; for Percent Leaf Yield: 21 days after spraying
Description: (§1) The use of exogenously supplied synthetic auxins on agronomic crops to elicit direct non-herbicidal effects, with an emphasis on the potential enhancement of yield, was assessed using genetically-engineered (GE) tobacco plant lines expressing synthetic auxin metabolizing genes. Non-GE controls were used, permitting separation of the herbicidal and biological properties of the exogenously supplied synthetic auxins. Tobacco was utilized to model dry matter yield.
(§2) The research was conducted in a single phase entailing characterization of response variables when plants were subjected to maximum (1× rate=1 pound/acre of active ingredient) and low (¼×=4 ounces/acre of active ingredient) rates of exogenously applied 2,4-dichlorophenoxyacetic acid (2,4-D). GE lines of tobacco (dark fired cultivar “KY 160”) expressing a synthetic gene for auxin metabolism (SAD1 or SAD2) were used, along with non-GE lines of the same genotype as control material. Commercial tobacco production has long utilized decapitation (“topping”) to initiate a predictable increase in leaf weight, thickness, and dry matter yield. This yield increase is dependent upon variables, such as genotype and fertility. By utilizing controls of the same genotype and a fixed level of fertility, significant yield variation responses should be attributable to the treatment (exogenous auxin herbicide application).
(§3) The overall experimental design was comprised of three parallel completely randomized designs with spray rate and genotype as the main factors. Three replications were performed for each treatment within each experiment. Each replication was the average measurement of six plants. The tobacco lines were allowed to advance to the 6-8 leaf stage. Upon reaching this stage, the primary meristem was removed along with lower leaves so that only 4 leaves remained. Plants were then sprayed with herbicide and permitted to grow for an additional 21 days. At the end of this period, dry matter yields for both leaf and the whole plant were measured.
(§4) Yield data recorded for tobacco were leaf dry matter, leaf number, and total dry matter. Corrected plant yield and corrected leaf yield were calculated for each replication as the leaf dry matter divided by leaf number then multiplied by the expected number of leaves (6 plants×4 leaves=24). This corrected leaf yield was then added to stem yield fraction (arrived at by subtracting actual leaf yield from total plant yield) to create a corrected total plant yield. All tobacco yield measurements were recorded in grams after a 7-day drying period in ambient air dryers.
(§5) Seed of non-transgenic tobacco lines were germinated on MS03 (MS salts, B5 vitamins, 3% sucrose) medium. Transgenic seeds were germinated on the same medium augmented with 300 mg/L kanamycin monosulfate to allow detection of any seedlings failing to carry the transgene. Thirty days after germination, seedlings were transplanted to the greenhouse into flats holding 8 trays of 6 plants each for a total of 48 plants. Plants were permitted to grow for approximately 45 days, at which time 6-8 leaves had developed. Prior to spraying, the top of the plant retaining the uppermost two leaves was removed (decapitated) resulting in the retention of 4 fully-extended leaves for each plant.
(§6) For spray assays and for the yield studies, spraying was performed in an Allen Machine Works Spray Cabinet. Spray rates were established as the equivalent of 16 ounces of active ingredient per acre (1× rate), 4 ounces active ingredient/acre (¼× rate), and the control (no active ingredient per acre or 0×). The herbicide used was 2,4-D, isooctyl ester formulation (3.9 pounds of active ingredient/gallon) at equivalent rates noted above. To achieve this equivalent 1× field rate, 500 microliters of herbicide were diluted into a total volume of 50 ml. The ¼× field rate was achieved by diluting 125 microliters of herbicide in a 50 ml volume. […]

[2] = test system: SAD1 - Cultivar KY 160 genetically engineered to express a synthetic gene for tolerance to phenoxy herbicides; assay: Yield assay, 2,4-D sprayed on transgenic SAD1 tobacco; conditions: for Plant Yield / Percent Leaf Yield / Corrected Leaf Yield / Corrected Plant Yield / Leaf Yield: SAD1 tobacco, isooctyl ester formulation; for Plant Yield / Corrected Leaf Yield / Corrected Plant Yield / Leaf Yield: dry matter 21 days after spraying; for Percent Leaf Yield: 21 days after spraying
Description: as §1, §2, §3, §4, §5, §6

[3] = test system: tobacco dark fired cultivar KY 160 (non-GE control); assay: Yield assay, 2,4-D sprayed on non-transgenic tobacco; conditions: isooctyl ester formulation; for Plant Yield / Corrected Leaf Yield / Corrected Plant Yield / Leaf Yield: dry matter 21 days after spraying; for Percent Leaf Yield: 21 days after spraying
Description: as §1, §2, §3, §4, §5, §6

[4] = 2,4-D rate 1X (1 pound active ingredient/acre)
[5] = 2,4-D rate ¼X (4 ounces active ingredient/acre)

In the case of `O=C(O)COc1ccc(Cl)cc1Cl` [2,4-D, 2,4-dichlorophenoxyacetic acid], the “Plant Yield” value [1, 4] is reported as 48.8 grams/plant/replication/treatment, the “Percent Leaf Yield” value ([1]; 2,4-D rate 1X) is reported as 42.2% and the “Corrected Leaf Yield” value ([1]; 2,4-D rate 1X) is reported as 21.6 grams/plant/replication/treatment. The “Corrected Plant Yield” value ([1]; 2,4-D rate 1X) was 51.0 grams/plant/replication/treatment, the “Leaf Yield” value ([1]; 2,4-D rate 1X) was 19.4 grams/plant/replication/treatment and the “Plant Yield” value [1, 5] was 43.9 grams/plant/replication/treatment. The “Percent Leaf Yield” value ([1]; 2,4-D rate ¼X) was 42.2%, the “Corrected Leaf Yield” value ([1]; 2,4-D rate ¼X) was 19.1 grams/plant/replication/treatment and the “Corrected Plant Yield” value ([1]; 2,4-D rate ¼X) was 45.2 grams/plant/replication/treatment. The “Leaf Yield” value ([1]; 2,4-D rate ¼X) was 17.8 grams/plant/replication/treatment, the “effect on yield” value ([1]; transgenic material (SAD2) sprayed with either the ¼× or 1× rate) was “significant increase in yield” and the “Plant Yield” value [2, 4] was 42.5 grams/plant/replication/treatment. For the same compound, the “Percent Leaf Yield” value ([2]; 2,4-D rate 1X) was 44.7%, the “Corrected Leaf Yield” value ([2]; 2,4-D rate 1X) was 19.1 grams/plant/replication/treatment and the “Corrected Plant Yield” value ([2]; 2,4-D rate 1X) was 42.7 grams/plant/replication/treatment. For the same compound, the “Leaf Yield” value ([2]; 2,4-D rate 1X) was 18.8 grams/plant/replication/treatment, the “Plant Yield” value [2, 5] was 43.5 grams/plant/replication/treatment and the “Percent Leaf Yield” value ([2]; 2,4-D rate ¼X) was 40.5%. The “Corrected Leaf Yield” value ([2]; 2,4-D rate ¼X) was 17.8 grams/plant/replication/treatment, the “Corrected Plant Yield” value ([2]; 2,4-D rate ¼X) was 43.9 grams/plant/replication/treatment and the “Leaf Yield” value ([2]; 2,4-D rate ¼X) was 17.4 grams/plant/replication/treatment. For the same compound, the “effect on yield” value ([2]; transgenic material (SAD1) sprayed with either the ¼× or 1× rate) was “significant increase in yield”, the “Plant Yield” value [3, 4] was 27.7 grams/plant/replication/treatment and the “Percent Leaf Yield” value ([3]; 2,4-D rate 1X) was 33.2%. For the same compound, the “Corrected Leaf Yield” value ([3]; 2,4-D rate 1X) was 9.4 grams/plant/replication/treatment, the “Corrected Plant Yield” value ([3]; 2,4-D rate 1X) was 28.2 grams/plant/replication/treatment and the “Leaf Yield” value ([3]; 2,4-D rate 1X) was 9.0 grams/plant/replication/treatment. For the same compound, the “Plant Yield” value [3, 5] was 33.1 grams/plant/replication/treatment, the “Percent Leaf Yield” value ([3]; 2,4-D rate ¼X) was 35.2% and the “Corrected Leaf Yield” value ([3]; 2,4-D rate ¼X) was 12.2 grams/plant/replication/treatment. For the same compound, the “Corrected Plant Yield” value ([3]; 2,4-D rate ¼X) was 34.3 grams/plant/replication/treatment and the “Leaf Yield” value ([3]; 2,4-D rate ¼X) was 11.0 grams/plant/replication/treatment.

Source: US20070225171A1 (priority 2001, published 2007)
